Read-outs that look alike come from different tables or passages of the source.

Assay [1] relates to Apples. In words: Intermediate Retardant Test, apples. It is filed as in vivo, Apples (Red Delicious). Particulars: 672 h, ~28 days, read-out: Percentage Reduction in Height of Apples (Compared to formulation blank). The method, then:
(§1) Three species are involved in this test RICE, SPRING-BARLEY and APPLES. The variety and growth stages at spray are outlined in Table VI. Compounds were applied at 1000 ppm and 4000 ppm respectively (1 kg and 4 kg ha^-1 at a field volume of 1000 l/ha^-1) as an overall spray. This gives a foliar and root component in the test, i.e. this test will detect the activity of both root and foliar acting compounds. The rice was grown in 4" `paddy` pots, i.e. the roots and bottom of the stems are immersed in water under conditions corresponding to those in paddy fields. Spring barley and apples were grown in 4" pots. The plants were assessed for height to top-most ligule at approximately 28 days after treatment for spring barley and rice and for height to apex at approximately 28 days after the treatment for apples. In each case the result for the 1000 ppm and 4000 ppm test for each compound is compared to the height of the formulation blank in that test, presented as a percentage reduction in height compared to the formulation blank.
as §1, with “in Table XIV. Compounds were” for “in Table VI. Compounds were”, “that test, and presented as” for “that test, presented as”

Assay [2] has as its system Maize. In words: Whole Plant Screen (2), maize. The settings on record: MZ, 4000 ppm. It is filed as in vivo, Maize (Earliking). The method, then:
(§2) Compound numbers 12-13, 16-17 and 19-20 were tested on an alternative whole plant screen (2). The compounds were tested for plant growth regulator activity against five species for various growth effects relevant to plant growth regulation.
The plant species used in this screen are presented in Table IV with the leaf stage at which they were sprayed. Each chemical was applied at 4000 ppm (4 kg/ha in a 1000 l/ha field volume) using a tracksprayer and a SS8004E (Teejet) nozzle.
After spray the plants were grown in a glasshouse with 25° C. day 22° C. night temperatures and supplementary lighting was supplied when necessary (from mercury vapour lamps), to provide a 16 hour photoperiod. The exception to this were the temperate cereals, wheat and barley which were grown in 16° C. day 13° C. night temperatures.
(§3) After 2-6 weeks in the glasshouse, depending on the time of year, the plants were visually assessed for morphological characteristics. Formulation blanks were used as controls to assess the plants.
(§4) Compound numbers 1, 5 and 7 (of the present invention) were tested against compounds A, B, C and D (compound Nos. 12, 2, 24 and 50 of Table 1 EP No. 0052424) on whole plant screen (2). The compounds were tested of plant growth regulator activity against five species and for various growth effects relevant to plant growth regulation. The structures are set out in FIG. 1.
The plant species used in this screen are presented in Table XII with the leaf stage at which they were sprayed Each chemical was applied at 4000 ppm (4 kg/ha in a 1000 l/ha field volume) using a tracksprayer and a SS8004E (Teejet) nozzle.
After spray the plants were grown in a glasshouse with 25° C. day/22° C. night temperatures and supplementary lighting was supplied when necessary (from mercury vapour lamps), to provide a 16 hour photoperiod. The exception to this were the temperate cereals, wheat and barley which were grown in 16° C. day/13° C. night temperatures.

Assay [3] deals with Rice. In words: Intermediate Retardant Test, rice. Particulars: Oryza sativa, 672 h, ~28 days, read-out: Percentage Reduction in Height of Rice (Compared to formulation blank). The class given is in vivo, Rice (Ishikari). The protocol: as §1
as §1, with “in Table XIV. Compounds were” for “in Table VI. Compounds were”, “that test, and presented as” for “that test, presented as”

Assay [4] deals with Spring Barley. In words: Intermediate Retardant Test, spring barley. It is filed as in vivo, Spring Barley (Atem/kym). Particulars: Hordeum vulgare, 672 h, ~28 days, read-out: Percentage Reduction in Height of Spring Barley (Compared to formulation blank). The protocol:
as §1
as §1, with “in Table XIV. Compounds were” for “in Table VI. Compounds were”, “that test, and presented as” for “that test, presented as”

Assay [5] relates to plant species of Whole Plant Screen (1) or (2). In words: Across screen comparison: total retardation relative to paclobutrazol (Whole Plant Screens (1) and (2)). The class given is in vivo. Particulars: for Total Retardation expressed as a percentage of the total retardation caused by paclobutrazol: compounds of EP 0052424, Table XI. The text has this: The following Example is a general indicative comparison of compounds from EP No. 0052424 with compounds from the preferred class in the present invention. The compounds have not been side-by-side tested on this Example because of the large numbers involved but the retardant activity can be compared using a standard which has been on each test.
The compounds which are compared in this Example have been tested on one of two tests. These are the Whole Plant Screen (1) and Whole Plant Screen (2) the methods for which are described in Examples 17 and 18 respectively.
An across screen comparison between compounds is made by expressing the total retardation (ie. sum of retardation scores recorded for each species tested) caused by the compound as a percentage of the total retardation caused by the standard in that test. The standard chemical gives a measure of the performance of the test and environmental factors. By expressing the test compound activity as a percentage of the standard compound activity these factors can be eliminated . The same standard has been used in every test and this is paclobutrazol a proprietory growth regulator.

The test system of assay [6] is Barley. In words: Whole Plant Screen (2), barley. The class given is in vivo, Barley (Atem). Particulars: BR, 4000 ppm. The method, then:
as §4
(§5) The plant species used in this screen are presented in Table XII with the leaf stage at which they were sprayed Each chemical was applied at 4000 ppm (4 kg/ha in a 1000 l/ha field volume) using a tracksprayer and a SS8004E (Teejet) nozzle. […]

The subject of assay [7] is Rice. In words: Whole Plant Screen (2), rice. The class given is in vivo, Rice (Ishikari). Particulars: RC, 4000 ppm. The protocol:
as §3, §4, §5

For assay [8], the system named is Wheat. In words: Whole Plant Screen (2), wheat. It is filed as in vivo, Wheat (Timmo). Particulars: WW, 4000 ppm. The protocol:
as §2
The plant species used in this screen are presented in Table IV with the leaf stage at which they were sprayed. Each chemical was applied at 4000 ppm (4 kg/ha in a 1000 l/ha field volume) using a tracksprayer and a SS8004E (Teejet) nozzle. […]
After 2-6 weeks in the glasshouse, depending on the time of year, the plants were visually assessed for morphological characteristics. Formulation blanks were used as controls to assess the plants. […]

The subject of assay [9] is Wheat. The settings on record: WW, 4000 ppm, 2-3 weeks.
Method: (§6) The compounds were tested for plant growth regulator activity against up to tweleve plant species for various growth effects relevant to plant growth regulation.
(§7) After spray, the plants were grown in a glasshouse with 25° C. day/22° C. night temperatures and supplementary lighting was supplied when necessary (from mercury vapour lamps), to provide a 16 hour photoperiod. The exception to this were the temperate cereals, wheat and barley, which were grown in 16° C. day 13° C. night temperatures
(§8) After 2-3 weeks in the glasshouse, depending on the time of year, the plants were visually assessed for morphological characteristics. Formulations blanks were used as controls to assess the Plants.
The subject of assay [10] is Cynosurus cristatus. The settings on record: CC, 4000 ppm, 2-3 weeks.
The test system of assay [11] is Tomato. The settings on record: TO, 4000 ppm, 2-3 weeks.
Method: as §6, §7, §8

For `CCCCCCC#CC(O)(Cn1cncn1)C(C)(C)CF` (stereo not shown) [Compound 21], in assay [1] (Table IX), the percent reduction in plant height vs formulation blank at 1000 ppm is 10% and the percent reduction in plant height vs formulation blank at 4000 ppm is 0%.
Regarding `CCCC#CC(Cn1cncn1)(OC)C(C)(C)C` (stereo not shown) [Compound 12], in assay [2] (2-6 weeks, Table V), the “I = Interligular or internodal length reduction” value is recorded as 1 (10-30%) and the “R = Retardation” value is given as 1 (10-30%). In assay [3] (Table VII), the Percent reduction in rice plant height vs formulation blank at 1000 ppm was determined as 23.8% and the Percent reduction in rice plant height vs formulation blank at 4000 ppm was determined as 49.7%. Moreover, in [4] (Table VIII), the height reduction vs blank at 1000 ppm stood at 2.7% and the height reduction vs blank at 4000 ppm is 12.6%. In [1] (Table IX), the percent reduction in plant height vs formulation blank at 1000 ppm came out at 15.7% and the percent reduction in plant height vs formulation blank at 4000 ppm came to 33.6%.
With `CC(C)(C)C(O)(C#Cc1ccc(Cl)cc1)Cn1cncn1` (stereo not shown) [C, reference compound], in assay [3] (side-by-side, Table XVI), the Percent reduction in rice plant height vs formulation blank at 1000 ppm came to 5% and the Percent reduction in rice plant height vs formulation blank at 4000 ppm came to 13%. Also, in assay [4] (side-by-side, Table XV), the height reduction vs blank at 1000 ppm is 4% and the height reduction vs blank at 4000 ppm was 6%. Moreover, in assay [1] (side-by-side, Table XVII), the percent reduction in plant height vs formulation blank at 1000 ppm turned out to be 0% and the percent reduction in plant height vs formulation blank at 4000 ppm turned out to be 0%. Besides, the “Total Retardation expressed as a percentage of the total retardation caused by paclobutrazol” value in assay [5] was 7.1 % of paclobutrazol.
For the compound `CC(C)(C)C(O)(C=Cc1ccc(Cl)cc1)Cn1cncn1` (stereo not shown) [B, reference compound], in [6] (side-by-side, Table XIII), the “T = Tillering or side shooting” value is listed as 1 (10-30%). In assay [7] (side-by-side, Table XIII), the “I = Interligular or internodal length reduction” value is reported as 1 (10-30%) and the “R = Retardation” value is 1 (10-30%). In addition, in assay [2] (side-by-side, Table XIII), the “I = Interligular or internodal length reduction” value is 1 (10-30%) and the “R = Retardation” value is listed as 1 (10-30%). In [3] (side-by-side, Table XVI), the Percent reduction in rice plant height vs formulation blank at 1000 ppm is 3% and the Percent reduction in rice plant height vs formulation blank at 4000 ppm turned out to be 11%. In assay [4] (side-by-side, Table XV), the height reduction vs blank at 1000 ppm amounted to 8% and the height reduction vs blank at 4000 ppm came to 7%. In addition, in assay [1] (side-by-side, Table XVII), the percent reduction in plant height vs formulation blank at 1000 ppm was 0% and the percent reduction in plant height vs formulation blank at 4000 ppm was determined as 3%. For the same compound, the “Total Retardation expressed as a percentage of the total retardation caused by paclobutrazol” value in assay [5] was 43.1 % of paclobutrazol.
Consider `CC(C)(C)C=CC(O)(Cn1cncn1)C(C)(C)C` (stereo not shown) [A, reference compound], for which, in [8] (side-by-side, Table XIII), the “G = Greening effect” value is 1 (10-30%). Further, the “T = Tillering or side shooting” value in [7] (side-by-side, Table XIII) was 2 (31-60%). In assay [2] (side-by-side, Table XIII), the “I = Interligular or internodal length reduction” value is given as 1 (10-30%) and the “R = Retardation” value is 1 (10-30%). For the same compound, in [3] (side-by-side, Table XVI), the Percent reduction in rice plant height vs formulation blank at 1000 ppm came to 4% and the Percent reduction in rice plant height vs formulation blank at 4000 ppm was 20%. In assay [4] (side-by-side, Table XV), the height reduction vs blank at 1000 ppm was 5% and the height reduction vs blank at 4000 ppm was found to be 13%. Further, in assay [1] (side-by-side, Table XVII), the percent reduction in plant height vs formulation blank at 1000 ppm was found to be 2% and the percent reduction in plant height vs formulation blank at 4000 ppm worked out at 14%. The “range of activity / superiority in comparison with EP 0052424 compounds” value in [5] (Tables X and XI, across screen comparison) is reported as “higher range of activity than the rest of the compounds”. In addition, the “Total Retardation expressed as a percentage of the total retardation caused by paclobutrazol” value in [5] is on record as 62.5 % of paclobutrazol.
Turning to `COC(C)(C)C#CC(O)(Cn1cncn1)C(C)(C)C` (stereo not shown) [D, reference compound], in [3] (side-by-side, Table XVI), the Percent reduction in rice plant height vs formulation blank at 1000 ppm is 2% and the Percent reduction in rice plant height vs formulation blank at 4000 ppm was 7%. In [4] (side-by-side, Table XV), the height reduction vs blank at 1000 ppm is 9% and the height reduction vs blank at 4000 ppm came to 13%. In assay [1] (side-by-side, Table XVII), the percent reduction in plant height vs formulation blank at 1000 ppm worked out at 0% and the percent reduction in plant height vs formulation blank at 4000 ppm was 0%. Moreover, the “Total Retardation expressed as a percentage of the total retardation caused by paclobutrazol” value in assay [5] is on record as 3.6 % of paclobutrazol.
With `CCCC#CC(O)(Cn1cncn1)C(C)(C)C` (stereo not shown) [Compound 11], the height reduction vs blank at 1000 ppm in [4] (Table VIII) came to 24%. In addition, the height reduction vs blank at 4000 ppm in [4] (Table VIII) stood at 49.4%. Further, the figures for the “Retardation score (1-3) with greening (G), apical damage (A), tillering/side shooting (T)” value in [9], in assay [10] and in assay [11] were 1 (10-30% retardation), 1 (10-30% retardation) and 2T, respectively.
For the compound `CCCCCC#CC(O)(Cn1cncn1)C(C)(C)CF` (stereo not shown) [Compound 20], the “I = Interligular or internodal length reduction” value in assay [6] (2-6 weeks, Table V) is reported as 1 (10-30%). In assay [8] (2-6 weeks, Table V), the “G = Greening effect” value is reported as 2 (31-60%) and the “T = Tillering or side shooting” value is given as 2 (31-60%). Moreover, the “T = Tillering or side shooting” value in [7] (2-6 weeks, Table V) is reported as 1 (10-30%).
As to `CCCC#CC(O)(Cn1cncn1)C(C)(C)CCl` (stereo not shown) [Compound 19], the percent reduction in plant height vs formulation blank at 4000 ppm in [1] (Table IX) was determined as 36.6%.

Values taken from patent US4895589A, “Heterocyclic compounds” (Imperial Chemical Industries PLC, priority 1985, dated 1990).
